Results from patent US7741032B2, “Genotyping assay to predict gamma glutamyl hydrolase (GGH) activity” (St. Jude Children's Research Hospital, Inc., priority 2004, dated 2010).

How the values were obtained:
[1] = biological target: T1, T127I variant GGH (Homo sapiens, UniProt Q92820, T151I); test: Enzyme kinetic analysis of heterologously expressed wild-type and T127I variant GGH with MTX-PG as substrate; assay type: biochemical; conditions: recombinant GGH, substrate as labelled; for catalytic efficiency (Vmax/Km) reduction of T127I variant: versus wild-type, p=0.003
T1 construct: A cDNA encoding the 294 amino acids of human GGH (with out leading peptide) was cloned by RT-PCR; made in house; host or cells: E. coli BL21(DE3)pLysS
T1 sequence (Q92820 25-318 T151I): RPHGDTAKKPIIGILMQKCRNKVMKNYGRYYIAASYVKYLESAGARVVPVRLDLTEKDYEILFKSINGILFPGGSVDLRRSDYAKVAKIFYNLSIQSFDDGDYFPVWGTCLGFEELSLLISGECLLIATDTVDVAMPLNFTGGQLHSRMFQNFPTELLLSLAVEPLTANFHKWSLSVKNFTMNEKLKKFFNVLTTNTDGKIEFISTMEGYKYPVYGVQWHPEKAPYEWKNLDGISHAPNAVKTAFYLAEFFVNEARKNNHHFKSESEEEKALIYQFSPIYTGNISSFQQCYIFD
Experimental: Wild-type human GGH cloning and site-directed mutagenesis: A cDNA encoding the 294 amino acids of human GGH (with out leading peptide) was cloned by RT-PCR and TA cloning (Invitrogen, Carlsbad, Calif.) using RNA isolated from human CEM cells. Plasmid DNA was purified using the mini prep kit (Qiagen, Santa Clarita, Calif.). After sequencing, the selected cDNA clone was subcloned into the pET28b vector (Novagen, Madison, Wis.) from Nde1 and BamH1 sites, and an N-terminal HisTag was added. This HisTag enabled the purification of large quantities of protein and had no effect on GGH activity (Chave, K. J. et al., 2000, id). Site-directed mutagenesis was performed with the QuickChange II kit (Stratagene, La Jolla, Calif.) according to the manufacturer's protocol. The primers used for mutagenesis of wild-type human GGH to T127I were
Expression and characterization of T127I variant GGH: Plasmids carrying wild-type and T127I variant GGH were used to transform E. coli strain BL21(DE3)pLysS competent cells (Novagen, Madison, Wis.). The E. coli cells were grown in LB medium containing 30 μg/ml kanamycin and 34 μg/ml chloramphenicol at 37° C. to OD600 about 0.6 and expression was induced with 1 mM isopropyl-β-D-thiogalactoside for 3 h. Cells were harvested by centrifugation at 5,000 g for 5 min at 4° C., and were kept as a frozen pellet at −70° C. Target proteins were extracted using BugBuster His-Bind Purification kit (Novagen, Madison, Wis.), followed by gel filtration chromatography at 4° C. on a HiLoad 26/60 S200 Superdex column (Amersham Pharmacia Biotech, Sweden) in 0.05 M sodium acetate buffer, pH5.5, containing 0.05 M 2-mercaptoethanol, 1 M NaCl, and 1 mM EDTA. Fractions containing target proteins were pooled and proteins were concentrated using Viva Cell 70 ml Concentrator, followed by Viva Cpin 2 ml Concentrator (Vivascience, Edgewood, NY).
Wild-type and T127I variant forms of human GGH were separated using NuPAGE™ 4-12% Bis-Tris Gel (Invitrogen, Carlsbad, Calif.). Protein bands were visualized by silver staining (Amersham Pharmacia Biotech, Sweden). Western blot was carried out as described (Tai, H. L. et al., “Thiopurine S-methyltransferase deficiency: two nucleotide transitions define the most prevalent mutant allele associated with loss of catalytic activity in Caucasians” Am J Hum Genet 58:694-702 (1996)). Polyclonal anti-human GGH rabbit antibody was kindly provided by Drs Thomas J. Ryan and […]. GGH activity was measured using MTEN buffer with 25 mM DTT. The assay mixture without substrate was incubated at 37° C. for 20 min, followed by incubation with substrate at 37° C. for 5 min and boiling for 5 min. In each experiment, wild-type and variant GGH were analyzed in parallel using varying concentrations of MTX-PG5 or MTX-PG2 as substrate. The substrate and the reaction products were analyzed by HPLC, and GGH activity was calculated by total amount of product formed per min per μg protein. Two independent experiments were carried on with each substrate. Nonlinear least-squares regression was used to estimate Km and Vmax by fitting a Michaels-Menten model as described earlier (Panetta, J. C. et al., id).

[2] = biological target: T2, GGH (Homo sapiens, UniProt Q92820, T151I); conditions: MTXPG2 as the substrate; reported by Chave et al. 2003; cited from earlier work
T2 sequence (Q92820 25-318 T151I): T1 sequence (Q92820 25-318 T151I)

Structure (SMILES)	difference in Vmax between the wild-type and T127I variant [1]	Km increase of T127I variant compared to wild-type GGH ([1]; p=0.021)	catalytic efficiency (Vmax/Km) reduction of T127I variant [1]	catalytic efficiency (Vmax/Km) reduction of T127I variant ([1]; listed as MTXPG5)	effect of T127I mutation on GGH activity [2]	difference in Km between the wild-type and T127I variant [1]	difference in catalytic efficiency between the wild-type and T127I variant [1]
CN(Cc1cnc2nc(N)nc(N)c2n1)c1ccc(C(=O)N[C@@H](CCC(=O)N[C@@H](CCC(=O)N[C@@H](CCC(=O)N[C@@H](CCC(=O)N[C@@H](CCC(=O)O)C(=O)O)C(=O)O)C(=O)O)C(=O)O)C(=O)O)cc1 [MTX-PG5]	not a significant difference	2.7 fold	67%	67.5%	–	–	–
CN(Cc1cnc2nc(N)nc(N)c2n1)c1ccc(C(=O)N[C@@H](CCC(=O)N[C@@H](CCC(=O)O)C(=O)O)C(=O)O)cc1 [MTX-PG2]	not a significant difference	–	–	–	did not change GGH activity	not a significant difference	not a significant difference
